Source: US11673876B2, “Substituted aminobenzyl heteroaryl compounds as EGFR and/or PI3K inhibitors” (Mekanistic Therapeutics LLC, priority 2020, dated 2023)
pIC50: −log10 of the molar value. ≈ marks a conversion by molar mass, not a printed value. Like-named read-outs stand apart in the source and are kept apart here.

Tests used:
EGFR = EGFR (Homo sapiens (Human), UniProt P00533); assay: Z'-LYTE / Adapta kinase assay, EGFR; assay type: biochemical; details: for inhibition at 0.1 µM: read-out: EGFR % Inh. @ 100 nM
Sequence of EGFR (P00533 25-1210): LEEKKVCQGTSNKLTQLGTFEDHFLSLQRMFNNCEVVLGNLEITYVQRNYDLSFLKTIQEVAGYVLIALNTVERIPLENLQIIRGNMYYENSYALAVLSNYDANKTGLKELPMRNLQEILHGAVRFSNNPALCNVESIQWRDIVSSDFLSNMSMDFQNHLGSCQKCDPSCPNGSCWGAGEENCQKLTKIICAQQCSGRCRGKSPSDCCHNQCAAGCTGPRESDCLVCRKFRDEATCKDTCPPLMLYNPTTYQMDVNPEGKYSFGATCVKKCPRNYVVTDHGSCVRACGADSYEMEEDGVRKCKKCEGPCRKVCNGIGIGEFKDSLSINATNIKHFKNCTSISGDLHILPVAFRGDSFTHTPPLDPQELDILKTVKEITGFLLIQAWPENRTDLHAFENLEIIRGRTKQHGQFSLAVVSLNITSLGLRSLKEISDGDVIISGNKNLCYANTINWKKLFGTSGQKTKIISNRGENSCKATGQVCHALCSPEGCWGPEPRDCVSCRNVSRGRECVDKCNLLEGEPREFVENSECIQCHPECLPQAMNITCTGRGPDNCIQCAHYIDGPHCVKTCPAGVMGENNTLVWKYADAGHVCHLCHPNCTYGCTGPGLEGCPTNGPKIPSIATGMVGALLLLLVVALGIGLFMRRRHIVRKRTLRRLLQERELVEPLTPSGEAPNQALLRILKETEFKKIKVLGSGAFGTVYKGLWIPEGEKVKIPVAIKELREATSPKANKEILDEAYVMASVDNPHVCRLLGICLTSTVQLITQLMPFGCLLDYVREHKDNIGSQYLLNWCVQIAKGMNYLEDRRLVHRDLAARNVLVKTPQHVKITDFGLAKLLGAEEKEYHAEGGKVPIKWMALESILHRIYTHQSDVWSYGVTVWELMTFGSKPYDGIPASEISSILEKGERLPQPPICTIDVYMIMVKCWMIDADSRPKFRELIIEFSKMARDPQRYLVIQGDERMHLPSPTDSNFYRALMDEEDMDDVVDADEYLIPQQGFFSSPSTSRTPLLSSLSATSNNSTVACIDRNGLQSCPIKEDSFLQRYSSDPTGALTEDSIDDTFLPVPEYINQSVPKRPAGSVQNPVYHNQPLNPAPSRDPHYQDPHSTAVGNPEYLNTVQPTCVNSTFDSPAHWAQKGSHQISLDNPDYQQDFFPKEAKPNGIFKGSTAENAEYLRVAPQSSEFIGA
Summary of the method: (§1)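 Z'-LYTE FRET-peptide phosphorylation read as coumarin/fluorescein emission ratio (400 nm excitation); Adapta immunoassay detects ADP formation. 60-min kinase reaction, 60-min development, room temperature.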

[1] = Solubility determination (PBS 7.4, SIF, SGF); assay type: physicochemical; details: for solubility at 2 h: kinetic from dmso stock
Protocol: Preparation of stock solutions: The stock solutions of test compounds and control compound diclofenac were prepared in DMSO at the concentrations of 10 mM.
Simulated Gastric Fluid (SGF): An aqueous mixture including hydrochloric acid, sodium chloride, and pepsin (pH=1.2).
Simulated Intestinal Fluid (SIF): Prepared by dissolving 6.8 g of KH2PO4 into about 500 mL ultrapure water and adjust the solution to a pH 6.8 with 0.1 M NaOH. 10 g trypsin is then dissolved into ultrapure water. The two solutions are mixed well and diluted with ultrapure water to a final volume of 1000 mL.
485 μL of (SIF, SGF, PBS 7.4, FESSIF, or FESSGF) was added into each vial of the cap-less Solubility Sample plate. The assay was performed in duplicate. Add one stir stick to each vial and seal using a molded PTFE/Silicone plug. […] After completion of the 2 hours, plugs were removed and the stir sticks were removed using a big magnet, the samples from the Solubility Sample plate were transferred into the filter plate. Using the Vacuum Manifold, all the samples were filtered. Aliquot of 5 μL and 5 μL DMSO were taken from the filtrate followed by addition of 490 μL of a mixture of H2O and acetonitrile containing internal standard (1:1). A certain proportion of ultrapure water was used to dilute the diluent according to the peak shape. The dilution factor was changed according to the solubility values and the LC-MS signal response.
Preparation of 300 μM standards (STD): From the 10 mM DMSO STD plate, 6 μL was transferred into the remaining empty plate, and then 194 μL of DMSO was added to that plate to have a STD concentration of 300 μM. From the 300 μM DMSO STD plate, 5 μL DMSO STD and 5 μL SIF was transferred into the remaining empty plate, and then 490 μL of a mixture of H2O and acetonitrile containing internal standard (1:1) was added to that plate to have a final STD concentration of 3 μM. A certain proportion of ultrapure water was used to dilute the diluent according to the peak shape. The concentrations of the standard samples were changed according to the LC-MS signal response.
Procedure for sample analysis: The plate was placed into the well plate autosampler. The samples were evaluated by LC-MS/MS analysis.
Data analysis: All calculations were carried out using Microsoft Excel. The filtrate was analyzed and quantified against a standard of known concentration using LC coupled with mass spectral peak identification and quantitation. Solubility values of the test compound and control compound were calculated as follows: […]
Any value of the compounds that was not within the specified limits was rejected and the experiment was repeated.

PI3Ka = PI3Ka (Homo sapiens (Human), UniProt P42336); assay: Z'-LYTE / Adapta kinase assay, PI3Ka; assay type: biochemical; details: for inhibition at 0.1 µM: read-out: PI3Ka % Inh. @ 100 nM
Sequence of PI3Ka (P42336 whole entry): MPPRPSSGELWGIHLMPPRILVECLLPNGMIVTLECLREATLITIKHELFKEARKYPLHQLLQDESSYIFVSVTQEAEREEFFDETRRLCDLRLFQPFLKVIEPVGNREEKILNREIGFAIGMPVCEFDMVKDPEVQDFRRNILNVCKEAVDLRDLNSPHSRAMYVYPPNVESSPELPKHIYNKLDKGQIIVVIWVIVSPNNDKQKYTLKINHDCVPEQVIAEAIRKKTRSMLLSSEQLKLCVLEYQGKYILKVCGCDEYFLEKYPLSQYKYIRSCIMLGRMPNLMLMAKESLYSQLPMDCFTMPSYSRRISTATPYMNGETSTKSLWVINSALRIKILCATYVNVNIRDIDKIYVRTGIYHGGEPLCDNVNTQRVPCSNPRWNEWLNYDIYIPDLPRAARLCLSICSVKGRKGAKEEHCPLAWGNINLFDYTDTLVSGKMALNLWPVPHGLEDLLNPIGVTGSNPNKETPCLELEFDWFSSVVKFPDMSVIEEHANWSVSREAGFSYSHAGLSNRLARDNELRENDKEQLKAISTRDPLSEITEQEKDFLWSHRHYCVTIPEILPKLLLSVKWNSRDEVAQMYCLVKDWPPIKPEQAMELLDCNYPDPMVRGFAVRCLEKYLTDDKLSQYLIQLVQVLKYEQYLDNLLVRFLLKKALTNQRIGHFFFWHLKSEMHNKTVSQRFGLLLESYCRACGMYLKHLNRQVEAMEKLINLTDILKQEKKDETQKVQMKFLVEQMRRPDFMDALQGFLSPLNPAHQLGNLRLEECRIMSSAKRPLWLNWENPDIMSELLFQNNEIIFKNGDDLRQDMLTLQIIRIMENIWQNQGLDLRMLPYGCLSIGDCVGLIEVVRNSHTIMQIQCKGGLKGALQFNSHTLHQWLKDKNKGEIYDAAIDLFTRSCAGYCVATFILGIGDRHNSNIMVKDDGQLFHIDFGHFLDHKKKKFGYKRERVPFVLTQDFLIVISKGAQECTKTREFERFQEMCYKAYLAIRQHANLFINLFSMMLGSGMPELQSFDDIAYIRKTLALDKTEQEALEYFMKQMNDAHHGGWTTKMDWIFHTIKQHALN
Sequence of PI3Ka (P27986 whole entry partner): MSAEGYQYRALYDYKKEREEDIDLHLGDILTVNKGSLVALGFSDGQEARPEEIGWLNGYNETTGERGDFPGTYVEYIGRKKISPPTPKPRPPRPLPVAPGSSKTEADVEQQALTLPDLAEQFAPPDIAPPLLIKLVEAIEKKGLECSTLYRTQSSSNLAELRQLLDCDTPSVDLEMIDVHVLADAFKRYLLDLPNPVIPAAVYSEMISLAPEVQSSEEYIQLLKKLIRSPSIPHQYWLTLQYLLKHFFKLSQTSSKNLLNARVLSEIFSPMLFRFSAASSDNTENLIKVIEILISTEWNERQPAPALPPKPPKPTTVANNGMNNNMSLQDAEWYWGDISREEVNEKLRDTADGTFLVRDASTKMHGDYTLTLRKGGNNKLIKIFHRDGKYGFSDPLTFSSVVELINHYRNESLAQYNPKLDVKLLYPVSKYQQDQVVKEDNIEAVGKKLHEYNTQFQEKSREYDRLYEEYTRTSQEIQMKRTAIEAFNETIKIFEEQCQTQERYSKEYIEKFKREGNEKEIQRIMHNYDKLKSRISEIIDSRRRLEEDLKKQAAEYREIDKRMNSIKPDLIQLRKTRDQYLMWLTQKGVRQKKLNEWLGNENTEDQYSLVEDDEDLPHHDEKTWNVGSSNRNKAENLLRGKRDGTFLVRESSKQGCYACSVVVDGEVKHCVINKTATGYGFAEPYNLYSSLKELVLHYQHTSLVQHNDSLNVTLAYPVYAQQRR
Summary of the method: as §1

[2] = aqueous buffer, PBS pH 7.4, 25° C., 2 hours, read-out: Solubility pH 7.4 PBS buffer
[3] = simulated gastric fluid (SGF), simulated gastric fluid pH 1.2, 25° C., 2 hours, read-out: Solubility SGF
[4] = simulated intestinal fluid (SIF), simulated intestinal fluid pH 6.8, 25° C., 2 hours, read-out: Solubility SIF

SMILES | pIC50 (EGFR) | inhibition at 0.1 µM (EGFR) [%] | solubility at 2 h [1, 4] [µM] | PI3Ka IC50 (nM) (PI3Ka) | inhibition at 0.1 µM (PI3Ka) [%] | EGFR % Inh. @ 100 nM (EGFR; 100 nM) | Solubility SIF ([1]; simulated intestinal fluid pH 6.8, 25° C., 2 hours) | solubility at 2 h [1, 2] [µM] | solubility at 2 h [1, 3] [µM] | PI3Ka % Inh. @ 100 nM (PI3Ka; 100 nM) | improvement in solubility compared to Comparative Compounds 1-3 ([1]; PBS buffer) | improvement in solubility compared to Comparative Compounds 1-3 ([1]; simulated intestinal fluid) | pIC50 (PI3Ka)
CS(=O)(=O)Nc1cc(-c2ccc3ncnc(NCc4ccccc4)c3c2)cnc1Cl [Comparative Compound 1, N-[5-[4-(benzylamino)quinazolin-6-yl]-2-chloro-3-pyridyl]methanesulfonamide, reference compound] | 6.70 to 7.70 | 10 to 80 | ≤ 20 | ++++ (value is 2 nM or less) | > 90 | – | – | ≤ 20 | > 200 | – | – | – | –
CS(=O)(=O)Nc1cc(-c2ccc3ncnc(Nc4ccc(F)c(Cl)c4)c3c2)cnc1Cl [Comparative Compound 2, reference compound] | 7.70 to 8.70 | > 90 | ≤ 20 | ++++ (value is 2 nM or less) | > 90 | – | – | ≤ 20 | > 200 | – | – | – | –
CS(=O)(=O)Nc1cncc(-c2ccc3ncnc(NCc4ccccc4)c3c2)c1 [Comparative Compound 3, reference compound] | – | – | – | ++ (value is greater than 20 nM and less than or equal to 200 nM) | – | **** (value is greater than 90%) | * (value is 20 μM or less) | – | – | *** (value is greater than 80% and less than or equal to 90%) | – | – | –
C[C@@H](Nc1ncnc2ccc(-c3cnc(Cl)c(NS(C)(=O)=O)c3)cc12)c1ccccc1 [Compound 2R, N-(2-chloro-5-(4-((1R-phenylethyl)amino)quinazolin-6-yl)pyridin-3-yl)methanesulfonamide] | 7.70 to 8.70 | 80 to 90 | 100 to 200 (≈ 45.4 to 90.8 µg/mL) | – | > 90 | – | – | 100 to 200 (≈ 45.4 to 90.8 µg/mL) | > 200 | – | same improvement in solubility | at least 5 times | 7.70 to 8.70
C[C@H](Nc1ncnc2ccc(-c3cnc(Cl)c(NS(C)(=O)=O)c3)cc12)c1ccccc1 [Compound 2S, N-(2-chloro-5-(4-((1S-phenylethyl)amino)quinazolin-6-yl)pyridin-3-yl)methanesulfonamide] | < 6.70 | < 10 | 100 to 200 (≈ 45.4 to 90.8 µg/mL) | ++++ (value is 2 nM or less) | > 90 | – | – | – | – | – | – | at least 5 times | –
CC(Nc1c(C#N)cnc2ccc(-c3cnc(N)nc3)cc12)c1ccccc1 (stereo not shown) [Compound 53, 6-(2-aminopyrimidin-5-yl)-4-(1-phenylethylamino) quinoline-3-carbonitrile] | 7.70 to 8.70 | 80 to 90 | 20 to 100 (≈ 7.33 to 36.6 µg/mL) | + (value is greater than 200 nM) | 10 to 80 | – | – | – | – | – | – | – | –

Second part, led by results:

pIC50 (EGFR) | inhibition at 0.1 µM (EGFR) [%] | solubility at 2 h [1, 4] [µM] | PI3Ka IC50 (nM) (PI3Ka) | inhibition at 0.1 µM (PI3Ka) [%] | EGFR % Inh. @ 100 nM (EGFR; 100 nM) | Solubility SIF ([1]; simulated intestinal fluid pH 6.8, 25° C., 2 hours) | SMILES | solubility at 2 h [1, 2] [µM] | solubility at 2 h [1, 3] [µM] | PI3Ka % Inh. @ 100 nM (PI3Ka; 100 nM) | improvement in solubility compared to Comparative Compounds 1-3 ([1]; PBS buffer) | improvement in solubility compared to Comparative Compounds 1-3 ([1]; simulated intestinal fluid) | pIC50 (PI3Ka)
7.70 to 8.70 | > 90 | 20 to 100 (≈ 7.33 to 36.6 µg/mL) | + (value is greater than 200 nM) | 10 to 80 | – | – | C[C@@H](Nc1c(C#N)cnc2ccc(-c3cnc(N)nc3)cc12)c1ccccc1 [Compound 53R, (R)-6-(2-aminopyrimidin-5-yl)-4-((1-phenylethyl)amino)quinoline-3-carbonitrile] | – | – | – | – | – | –
7.70 to 8.70 | > 90 | ≤ 20 | + (value is greater than 200 nM) | 10 to 80 | – | – | CC(Nc1c(C#N)cnc2ccc(-c3cnc4[nH]ncc4c3)cc12)c1ccccc1 (stereo not shown) [Compound 54, 4-(1-phenylethylamino)-6-(1H-pyrazolo[3,4-b]pyridin-5-yl)quinoline-3-carbonitrile] | – | – | – | – | – | –
6.70 to 7.70 | 10 to 80 | 20 to 100 (≈ 9.44 to 47.2 µg/mL) | – | > 90 | – | – | C[C@@H](Nc1ncnc2ccc(-c3cnc(Cl)c(NS(C)(=O)=O)c3)cc12)c1ccc(F)cc1 [Compound 111R, N-(2-chloro-5-(4-((1R-(4-fluorophenyl)ethyl)amino)quinazolin-6-yl)pyridin-3-yl)methanesulfonamide] | 20 to 100 (≈ 9.44 to 47.2 µg/mL) | > 200 | – | – | – | 7.70 to 8.70
